Laboratory results published in patent publication US10207988B2, “Methods and compositions for treatment of cancer and autoimmune disease” (THE JACKSON LABORATORY, priority 2011, dated 2019).

Assays:
[1] = tested on: mouse B-lymphoid leukemia cell line CH12-F3; test: total cell counts of CH12-F3 cells cultured with DIDS; format: cell-based
Procedure: The mouse B-lymphoid leukemia cell line CH12-F3 was cultured in RPMI-1640 medium supplemented with 2-10 mM L-glutamine (Gibco), 10% (vol/vol) heat-inactivated fetal bovine serum (Omega Scientific) and 5% (vol/vol) NCTC 109 media (Gibco) (complete RPMI; non-activated) or complete RPMI-1640 medium containing 1 μg/ml anti-CD40 antibody, 25 ng/ml IL-4 and 1 ng/ml transforming growth factor beta 1 (TGF-beta1) (activated). Cultures were supplemented with 0, 50, 100, or 150 micromolar DIDS, and total cell counts were determined by manual cytometry after 0, 1, 2, 3, 4, or 6 days in culture.

[2] = tested on: phospho-H2AX foci in mouse primary splenocytes (AID+/+ and AID−/−); test: phospho-H2AX foci in activated splenocytes exposed to DIDS; format: cell-based; conditions: 150 micromolar DIDS
Description: Mouse primary splenocytes isolated from 8-12 week old wild type (AID+/+) and AID-knockout (AID−/−) mice as described in Example 1 were exposed to 150 micromolar DIDS, and activated by anti-CD40 antibody plus interleukin-4, fixed and stained for the DNA break marker phospho-H2AX and for nuclear DNA using the fluorescent DNA staining dye 4′,6-diamidino-2-phenylindole (DAPI). In FIG. 16A the fraction of cells containing 0, 1-2, or greater than 2 phospho-H2AX positive foci was quantified for AID+/+ (filled bars) and AID−/− (open bars) cells. […] In FIG. 16B the proportion of phospho-H2AX positive cells (filled bars) versus phospho-H2AX negative cells (open bars) was quantified for AID+/+ in comparison to AID−/− cultures. […] In FIG. 16C the number of foci per cell was quantified for DIDS-treated AID+/+ (filled bars) versus AID−/− (open bars) cells. Data are expressed as the absolute number of cells (y-axis) harboring the indicated number of phosphor-H2AX foci (from 0 to >20; x-axis).

[3] = tested on: AID-expressing (AID+) primary human CLL cells; test: survival of primary human CLL cells cultured with DIDS (manual cytometry); format: cell-based
Procedure: AID-expressing (AID+) or AID-negative (AID−) primary human CLL cells were cultured as described in Example 4. […] […] The cell survival was scored by manual cytometry for viable cells after 2, 4, or 8 days of exposure.
(§1) Eight AID+ and eight AID− CLL samples were cultured in basic RPMI-1640 medium plus 30 micromolar DIDS, and survival was scored by manual cytometry for viable cells after 2, 4, 6, or 8 days. […] A total of 117 lymphoma or leukemia patients were studies, of which 106 were CLL patients. In 47% AID expression was determined by RT-PCR.

[4] = tested on: AID-negative (AID−) primary human CLL cells; test: as above; format: cell-based; conditions: 30 micromolar DIDS, 2, 4 or 8 days, versus untreated
Procedure: AID-expressing (AID+) or AID-negative (AID−) primary human CLL cells were cultured as described in Example 4. Cells were cultured in basic RPMI-1640 medium without supplementation (untreated; triangle in FIG. 17) or with 30 micromolar DIDS. Open circles represent the data for AID-negative cells treated with 30 micromolar DIDS and filled boxes represent the data for AID-positive cells treated with 30 micromolar DIDS. The cell survival was scored by manual cytometry for viable cells after 2, 4, or 8 days of exposure.
as §1

[5] = tested on: RAD51 foci in primary mouse B-cells; test: RAD51 focus formation after ionizing radiation (immunofluorescence); format: cell-based
Procedure: Primary mouse B-cells were isolated from spleen of wild type C57BL/6J mice by magnetic bead based sorting (Miltenyi) to purify B220+ IgM+ B-cells. B-cells were then […], exposed to 0 or 2.5 Gy ionizing radiation in a Cs137 irradiator, and then stained by immunofluorescence for foci of the homologous recombination factor RAD51. The fraction of cells in each culture showing formation of RAD51 foci within the nucleus is reported. Irradiated cells not cultured with DIDS (0 μM) show efficient focus formation. […] Error bars show the standard error of the mean (S.E.M) from three independent experiments.

[6] = tested on: AID+/+ (C57BL/6) or AID−/− mice; test: systemic DIDS treatment of DNP-KLH immunized mice; format: in vivo
Procedure: To test the in vivo effectiveness of DIDS, either AID+/+ (C57BL/6) or AID−/− mice (Muramatsu et al. et al., 2000 supra) were administered DIDS (10 mg/kg or 50 mg/kg) at weekly intervals, immunized at weeks 1 with dinitrophenol conjugated Keyhole limpet hemocyanin (DNP-KLH) in complete Freund's adjuvant (CFA) to stimulate lymphocyte activation, and boosted after 4 weeks with DNP-KLH (in incomplete Freund's adjuvant, IFA). After a total of 7 weeks (FIG. 25A) mice were euthanized. The group size was n=5. […] For this the mice were weighed weekly and the data represent the average fractional change in body mass for five animals, and error bars denote S.E.M.
After the 7-week trial window, tissues from treated and control animals were fixed, sectioned, and analyzed after hematoxylin and eosin (H&E) staining. […] To determine whether DIDS induced a B-cell specific phenotype related to AID, bone marrow, spleen, and peripheral blood, from DIDS-treated AID+/+ versus AID−/− mice, were analyzed for the presence of B220+CD19+ B-cells, by flow cytometry (FIG. 26). […] In FIG. 26 the endpoint flow cytometry dot plot analysis of bone marrow, spleen, and peripheral blood from AID−/− and AID+/+ mice immunized with DNP-KLH and treated with 0, 10, or 50 mg/kg DIDS is shown. Plots represent the population of cells in the lymphocyte gate stained for expression of B220 (y-axis) and CD19 (x-axis). The numbers in the upper right corner of each plot provide the percentage of B220+/CD19+ cells for each analysis. The progression of B-cell maturation from early/pre-GC to post-GC is indicated below.

O=S(=O)([O-])c1cc(N=C=S)ccc1/C=C/c1ccc(N=C=S)cc1S(=O)(=O)[O-].[Na+].[Na+] [DIDS, 4,4′diisothiocyanostilbene-2,2′-disulfonic acid]
total cell number ([1]; activated cells (anti-CD40, IL-4, TGF-beta1), 150 micromolar DIDS): strong decrease of total cell number | total cell number ([1]; non-activated cells, 0-150 micromolar DIDS): no difference in cell viability or cell proliferation | proportion of phospho-H2AX positive cells ([2]; AID+/+ in comparison to AID−/− cultures): higher percentage of phospho-H2AX positive cells | fraction of cells with greater than 2 phospho-H2AX foci ([2]; AID+/+ versus AID−/− cells): significant higher fraction of cells with greater than 2 foci | cell viability ([3]; 10 μM DIDS): significant effects on cell viability | cell survival (viable cells) ([3]; 30 micromolar DIDS, 2, 4 or 8 days): reduced cell viability | cell viability, AID-positive versus AID-negative ([3]; 30 micromolar DIDS, eight AID+ and eight AID− CLL samples, 2, 4, 6 or 8 days): more strongly reduces cell viability in AID-positive than in AID-negative primary human CLL cells | cell survival (viable cells) [4]: indistinguishable | fraction of cells with RAD51 foci ([5]; 150 μM DIDS, 2.5 Gy ionizing radiation): completely inhibits radiation-induced RAD51 focus formation | fraction of cells with RAD51 foci ([5]; 150 µM DIDS, irradiated cells (legend of FIG. 22)): completely inhibits radiation-induced RAD51 focus formation | weight gain (fractional change in body mass) ([6]; 0 mg/kg control and 50 mg/kg cohorts, after 5 weeks): independent of DIDS exposure | overt signs of toxicity ([6]; 10 mg/kg or 50 mg/kg DIDS at weekly intervals, 7 weeks): No animals in either the control or DIDS-treated groups showed overt signs of toxicity | overt non-B-cell toxicity ([6]; AID+/+ or AID−/− cohort): none of the DIDS treated animals | percentages of splenic B-cells (flow cytometry) ([6]; AID+/+ or AID−/− mice): no consistent differences | toxicity / splenic physiology ([6]; at least up to 50 mg/kg, AID+/+ or AID−/− mice): does not induce significant toxicity or general defects in splenic physiology | reduction in circulating B-lymphoid cells (flow cytometry) ([6]; both 10 mg/kg and 50 mg/kg DIDS, AID+/+ mice): 9-11 fold | reduction in B220+CD19+ B-cells in the bone marrow (flow cytometry) ([6]; both 10 mg/kg and 50 mg/kg treated AID+/+ mice): 25% | spleen sections, H&E staining ([6]; untreated versus DIDS-treated animals, after 7 weeks): no gross anatomical defects or differences in germinal center (GC) architecture
